{"source": "patent US20020137929A1", "about": "“1 - (3-heterocyclylphenyl) isothiourea, -isourea, -guanidine and -amidine herbicidal agents” (Intellectual Property Department, BASF Aktiengesellschaft, priority 1998, published 2002)", "key": {"ECHCG (Barnyardgrass)": {"test_system": "ECHCG (Barnyardgrass)", "assay": "Preemergence herbicidal evaluation", "type": "in vivo, Echinochloa crus-galli", "conditions": "rated 4-5 weeks after treatment", "outline": "(§1)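 Herbicidal effect scored visually, 0-9, at 4 to 5 weeks against a control; compound applied preemergence by aqueous acetone spray to seeded soil at about 0.0156 to 0.500 kg/ha.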"}, "AMBEL (Ragweed, Common)": {"test_system": "AMBEL (Ragweed, Common)", "assay": "Postemergence herbicidal evaluation", "type": "in vivo, Ambrosia artemisifolia", "outline": "(§2)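 Each compound, dispersed in an acetone/water mix (50/50) carrying 0.5% TWEEN 20, is nozzle-sprayed at 40 psi on approximately two-week-old seedlings at about 0.0156–0.500 kg/ha. Plants are assessed 4–5 weeks afterward on a 0–9 scale relative to control; duplicate tests are averaged.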"}, "ZEAMX (Corn, Field)": {"test_system": "ZEAMX (Corn, Field)", "assay": "Preemergence herbicidal evaluation", "type": "in vivo, Zea mays", "conditions": "rated 4-5 weeks after treatment", "outline": "as §1"}, "CYPIR (Rice Flatsedge)": {"test_system": "CYPIR (Rice Flatsedge)", "assay": "Postemergence weed control under flooded paddy conditions", "type": "in vivo, Cyperus iria", "conditions": "postemergence weeds, 3-4 weeks after treatment", "outline": "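Flood-water application, about 0.0313–0.500 kg/ha a.i. in aqueous/acetone 50/50 v/v; water depth 1.5–3 cm throughout. Weeds 3–5 cm, rice 1.5–2.5 leaf. Greenhouse; 0–9 visual rating vs control at 3–4 wk.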"}, "CASOB (Sicklepod) [1]": {"test_system": "CASOB (Sicklepod)", "assay": "Postemergence herbicidal evaluation", "type": "in vivo, Cassia obtusifolia", "outline": "as §2"}, "GALAP (Galium)": {"test_system": "GALAP (Galium)", "assay": "Postemergence herbicidal evaluation", "type": "in vivo, Galium aparine", "outline": "as §2"}, "CASOB (Sicklepod) [2]": {"test_system": "CASOB (Sicklepod)", "assay": "Preemergence herbicidal evaluation", "type": "in vivo, Cassia obtusifolia", "conditions": "rated 4-5 weeks after treatment", "outline": "as §1"}, "[3]": {"test_system": "IPOHE (Morningglory, Ivyleaf)", "assay": "Preemergence herbicidal evaluation", "type": "in vivo, Ipomoea hederacea", "conditions": "rated 4-5 weeks after treatment", "outline": "as §1"}, "[4]": {"test_system": "IPOHE (Morningglory, Ivyleaf)", "assay": "Postemergence herbicidal evaluation", "type": "in vivo, Ipomoea hederacea", "outline": "as §2"}, "[5]": {"test_system": "TRZAWR (Wheat, Winter, cv Riband)", "assay": "Preemergence herbicidal evaluation", "type": "in vivo, Triticum aestivum", "conditions": "rated 4-5 weeks after treatment", "outline": "as §1"}, "ABUTH (Velvetleaf)": {"test_system": "ABUTH (Velvetleaf)", "assay": "Preemergence herbicidal evaluation", "type": "in vivo, Abutilon theophrasti", "conditions": "rated 4-5 weeks after treatment", "outline": "as §1"}, "[6]": {"test_system": "GLXMAW (Soybean, Williams)", "assay": "Preemergence herbicidal evaluation", "type": "in vivo, Glycine max, (L.) Merr. cv Williams", "conditions": "rated 4-5 weeks after treatment", "outline": "as §1"}, "MOOVA (Monochoria)": {"test_system": "MOOVA (Monochoria)", "assay": "Preemergence weed control under flooded paddy conditions", "type": "in vivo, Monochoria vaginalis", "conditions": "rated 3-4 weeks after treatment", "outline": "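First, seeds or propagules go into the top 0.5 cm of silt loam; next, water is held 1.5 to 3 cm over the soil; then compound (50/50 acetone/water) is pipetted into it at about 0.0313 to 0.500 kg/ha; finally plants are rated visually 0-9 after three to four weeks.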"}}, "data": [{"smiles": "C=CCN1C(=O)C(CC(=O)Nc2ccccc2)SC1=Nc1cc(-n2c(=O)cc(C(F)(F)F)n(C)c2=O)c(F)cc1Cl", "note": "(stereo not drawn) [Compound 44, 3-Allyl-2-{{2-chloro-5-[3,6-dihydro-3-methyl-2,6-dioxo-4-(trifluoromethyl)-1(2H)-pyrimidinyl]-4-fluorophenyl}imino}-4-oxo-5-thiazolidineacetanilide]", "values": [{"measurement": "Preemergence herbicidal rating ECHCG", "setting": "ECHCG (Barnyardgrass); rate 0.0156 kg/ha", "result": 0.0}, {"measurement": "Preemergence herbicidal rating ECHCG", "setting": "ECHCG (Barnyardgrass); rate 0.0313 kg/ha", "result": 0.0}, {"measurement": "Preemergence herbicidal rating ECHCG", "setting": "ECHCG (Barnyardgrass); rate 0.0625 kg/ha", "result": 0.0}, {"measurement": "Preemergence herbicidal rating ECHCG", "setting": "ECHCG (Barnyardgrass); rate 0.1250 kg/ha", "result": 0.0}, {"measurement": "Preemergence herbicidal rating ECHCG", "setting": "ECHCG (Barnyardgrass); rate 0.2500 kg/ha", "result": 0.0}, {"measurement": "Preemergence herbicidal rating ECHCG", "setting": "ECHCG (Barnyardgrass); rate 0.5000 kg/ha", "result": 0.0}, {"measurement": "Postemergence herbicidal rating AMBEL", "setting": "AMBEL (Ragweed, Common); Rate 0.0156 kg/ha", "result": 4.0}, {"measurement": "Postemergence herbicidal rating AMBEL", "setting": "AMBEL (Ragweed, Common); Rate 0.0313 kg/ha", "result": 4.0}, {"measurement": "Postemergence herbicidal rating AMBEL", "setting": "AMBEL (Ragweed, Common); Rate 0.0625 kg/ha", "result": 7.0}, {"measurement": "Postemergence herbicidal rating AMBEL", "setting": "AMBEL (Ragweed, Common); Rate 0.1250 kg/ha", "result": 9.0}, {"measurement": "Preemergence herbicidal rating ZEAMX", "setting": "ZEAMX (Corn, Field); rate 0.0156 kg/ha", "result": 0.0}, {"measurement": "Preemergence herbicidal rating ZEAMX", "setting": "ZEAMX (Corn, Field); rate 0.0313 kg/ha", "result": 0.0}, {"measurement": "Preemergence herbicidal rating ZEAMX", "setting": "ZEAMX (Corn, Field); rate 0.0625 kg/ha", "result": 0.0}, {"measurement": "Preemergence herbicidal rating ZEAMX", "setting": "ZEAMX (Corn, Field); rate 0.1250 kg/ha", "result": 1.0}, {"measurement": "Preemergence herbicidal rating ZEAMX", "setting": "ZEAMX (Corn, Field); rate 0.2500 kg/ha", "result": 0.0}, {"measurement": "Preemergence herbicidal rating ZEAMX", "setting": "ZEAMX (Corn, Field); rate 0.5000 kg/ha", "result": 0.0}, {"measurement": "Herbicidal rating CYPIR", "setting": "CYPIR (Rice Flatsedge); rate 0.0313 kg/ha", "result": 5.0}, {"measurement": "Herbicidal rating CYPIR", "setting": "CYPIR (Rice Flatsedge); rate 0.0625 kg/ha", "result": 6.0}, {"measurement": "Herbicidal rating CYPIR", "setting": "CYPIR (Rice Flatsedge); rate 0.1250 kg/ha", "result": 6.0}, {"measurement": "Herbicidal rating CYPIR", "setting": "CYPIR (Rice Flatsedge); rate 0.2500 kg/ha", "result": 9.0}, {"measurement": "Postemergence herbicidal rating CASOB", "setting": "CASOB (Sicklepod) [1]; Rate 0.0156 kg/ha", "result": 0.0}, {"measurement": "Postemergence herbicidal rating CASOB", "setting": "CASOB (Sicklepod) [1]; Rate 0.0313 kg/ha", "result": 0.0}, {"measurement": "Postemergence herbicidal rating CASOB", "setting": "CASOB (Sicklepod) [1]; Rate 0.0625 kg/ha", "result": 2.0}, {"measurement": "Postemergence herbicidal rating CASOB", "setting": "CASOB (Sicklepod) [1]; Rate 0.1250 kg/ha", "result": 2.0}, {"measurement": "Postemergence herbicidal rating GALAP", "setting": "GALAP (Galium); Rate 0.0156 kg/ha", "result": 0.0}, {"measurement": "Postemergence herbicidal rating GALAP", "setting": "GALAP (Galium); Rate 0.0313 kg/ha", "result": 1.0}, {"measurement": "Postemergence herbicidal rating GALAP", "setting": "GALAP (Galium); Rate 0.0625 kg/ha", "result": 1.0}, {"measurement": "Postemergence herbicidal rating GALAP", "setting": "GALAP (Galium); Rate 0.1250 kg/ha", "result": 1.0}, {"measurement": "Preemergence herbicidal rating CASOB", "setting": "CASOB (Sicklepod) [2]; rate 0.0156 kg/ha", "result": 0.0}, {"measurement": "Preemergence herbicidal rating CASOB", "setting": "CASOB (Sicklepod) [2]; rate 0.0313 kg/ha", "result": 0.0}, {"measurement": "Preemergence herbicidal rating CASOB", "setting": "CASOB (Sicklepod) [2]; rate 0.0625 kg/ha", "result": 0.0}, {"measurement": "Preemergence herbicidal rating CASOB", "setting": "CASOB (Sicklepod) [2]; rate 0.1250 kg/ha", "result": 1.0}, {"measurement": "Preemergence herbicidal rating CASOB", "setting": "CASOB (Sicklepod) [2]; rate 0.2500 kg/ha", "result": 0.0}, {"measurement": "Preemergence herbicidal rating CASOB", "setting": "CASOB (Sicklepod) [2]; rate 0.5000 kg/ha", "result": 1.0}, {"measurement": "Preemergence herbicidal rating IPOHE", "setting": "[3]; rate 0.0156 kg/ha", "result": 0.0}, {"measurement": "Preemergence herbicidal rating IPOHE", "setting": "[3]; rate 0.0313 kg/ha", "result": 0.0}, {"measurement": "Preemergence herbicidal rating IPOHE", "setting": "[3]; rate 0.0625 kg/ha", "result": 0.0}, {"measurement": "Preemergence herbicidal rating IPOHE", "setting": "[3]; rate 0.1250 kg/ha", "result": 1.0}, {"measurement": "Preemergence herbicidal rating IPOHE", "setting": "[3]; rate 0.2500 kg/ha", "result": 0.0}, {"measurement": "Preemergence herbicidal rating IPOHE", "setting": "[3]; rate 0.5000 kg/ha", "result": 0.0}, {"measurement": "Postemergence herbicidal rating IPOHE", "setting": "[4]; Rate 0.0156 kg/ha", "result": 9.0}, {"measurement": "Postemergence herbicidal rating IPOHE", "setting": "[4]; Rate 0.0313 kg/ha", "result": 9.0}, {"measurement": "Postemergence herbicidal rating IPOHE", "setting": "[4]; Rate 0.0625 kg/ha", "result": 9.0}, {"measurement": "Postemergence herbicidal rating IPOHE", "setting": "[4]; Rate 0.1250 kg/ha", "result": 9.0}, {"measurement": "Preemergence herbicidal rating TRZAWR", "setting": "[5]; rate 0.0156 kg/ha", "result": 0.0}, {"measurement": "Preemergence herbicidal rating TRZAWR", "setting": "[5]; rate 0.0313 kg/ha", "result": 0.0}, {"measurement": "Preemergence herbicidal rating TRZAWR", "setting": "[5]; rate 0.0625 kg/ha", "result": 0.0}, {"measurement": "Preemergence herbicidal rating TRZAWR", "setting": "[5]; rate 0.1250 kg/ha", "result": 0.0}, {"measurement": "Preemergence herbicidal rating TRZAWR", "setting": "[5]; rate 0.2500 kg/ha", "result": 0.0}, {"measurement": "Preemergence herbicidal rating TRZAWR", "setting": "[5]; rate 0.5000 kg/ha", "result": 0.0}, {"measurement": "Preemergence herbicidal rating ABUTH", "setting": "ABUTH (Velvetleaf); rate 0.0156 kg/ha", "result": 0.0}, {"measurement": "Preemergence herbicidal rating ABUTH", "setting": "ABUTH (Velvetleaf); rate 0.0313 kg/ha", "result": 0.0}, {"measurement": "Preemergence herbicidal rating ABUTH", "setting": "ABUTH (Velvetleaf); rate 0.0625 kg/ha", "result": 0.0}, {"measurement": "Preemergence herbicidal rating ABUTH", "setting": "ABUTH (Velvetleaf); rate 0.1250 kg/ha", "result": 9.0}, {"measurement": "Preemergence herbicidal rating ABUTH", "setting": "ABUTH (Velvetleaf); rate 0.2500 kg/ha", "result": 9.0}, {"measurement": "Preemergence herbicidal rating ABUTH", "setting": "ABUTH (Velvetleaf); rate 0.5000 kg/ha", "result": 9.0}, {"measurement": "Preemergence herbicidal rating GLXMAW", "setting": "[6]; rate 0.0156 kg/ha", "result": 0.0}, {"measurement": "Preemergence herbicidal rating GLXMAW", "setting": "[6]; rate 0.0313 kg/ha", "result": 0.0}, {"measurement": "Preemergence herbicidal rating GLXMAW", "setting": "[6]; rate 0.0625 kg/ha", "result": 0.0}, {"measurement": "Preemergence herbicidal rating GLXMAW", "setting": "[6]; rate 0.1250 kg/ha", "result": 0.0}, {"measurement": "Preemergence herbicidal rating GLXMAW", "setting": "[6]; rate 0.2500 kg/ha", "result": 0.0}, {"measurement": "Preemergence herbicidal rating GLXMAW", "setting": "[6]; rate 0.5000 kg/ha", "result": 0.0}, {"measurement": "Herbicidal rating MOOVA", "setting": "MOOVA (Monochoria); 0.0313 kg/ha", "result": 4.0}, {"measurement": "Herbicidal rating MOOVA", "setting": "MOOVA (Monochoria); 0.0625 kg/ha", "result": 4.0}, {"measurement": "Herbicidal rating MOOVA", "setting": "MOOVA (Monochoria); 0.1250 kg/ha", "result": 7.0}, {"measurement": "Herbicidal rating MOOVA", "setting": "MOOVA (Monochoria); 0.2500 kg/ha", "result": 9.0}]}]}
